In US20060084599A1, “Compositions, methods and kits relating to notch signaling” (Maine Medical Center, priority 2003, published 2006):

Key:
[1] = molecular target: T1, human Jagged1 (Homo sapiens, UniProt P78504); assay: Thrombin cleavage of in vitro translated Jagged1 and Edman microsequencing; format: biochemical; details: Edman chemistry of 95 kDa fragment
T1 construct: the full-length human Jagged1 transcript was in vitro translated; made in house; host or cells: cell-free: T7-coupled reticulocyte lysate system (Promega)
Experimental: (§1) A plasmid containing human Jagged1 (Zinrin et al., 1996, J. Biol. Chem. 271:32499-32502) was in vitro transcribed and in vitro translated in the presence of a (^35S)-Met/Cys protein-labeling mixture (Amersham) using the T7-coupled reticulocyte lysate system according to the manufacturer's instructions (Promega) in a total volume of 50 μl. After 60 minutes incubation at 30° C., 0.05% DTT was added, half of the reaction mixture incubated with 10 μg α-thrombin for 15 minutes at 37° C., and the reaction stopped by boiling in the presence of SDS-PAGE sample buffer. The samples were resolved by 12% SDS-PAGE, transferred to a nitrocellulose membrane, and analyzed by autoradiography. The bands corresponding to the thrombin cleavage products were excised and subjected to automated Edman microsequencing (Applied Bio Sciences). The products of each cycle were collected prior to resolution by HPLC, added to liquid scintillation fluid (Beckman) and the (^35S) samples quantitated by liquid scintillation spectroscopy (Beckman).

[2] = molecular target: T2, human Jagged1 (Homo sapiens, UniProt P78504, A1171G); assay: as above; format: biochemical; details: α-thrombin, 15 minutes at 37° C.
T2 construct: the full-length human Jagged1 transcript was in vitro translated; made in house; host or cells: cell-free: T7-coupled reticulocyte lysate system (Promega)
Experimental: as §1

[3] = system: NCSC populations; assay: Dosage sensitivity of secondary NCSC to BMP2 and sDl1; format: cell-based, murine; details: founders expanded 18 days; BMP2 and sDl1 dose response
Experimental: It is well established that quantitative changes in the dosage sensitivity of NCSC populations occur in vitro and in vivo during NCSC self-renewal (Kubu et al., 2002, Dev. Biol. 244:199-214; White et al., 1999, Development 126:4351-4363; White et al., 2001, Neuron 29:57-71). In order to resolve whether it was possible to clonally expand stem cell populations without the loss of qualitative or quantitative differentiation potential, it was evaluated whether NCSC population expansion in either a thrombin or a sJ 1 environment was able to maintain the quantitative dosage sensitivity of the NCSC populations to instructive differentiation factors. NCSC clones were expanded with either thrombin, TRAP, or sJ1 for 18 days, the clones dissociated to a clonal density every 6 days to minimize cell-cell interactions, and the p75^+/P0^− cells identified. The dosage sensitivity of secondary NCSC populations to both BMP2 and sDl1 was evaluated using the clonogenic differentiation assay to quantitate the production of neuron-only clones (BMP2) and glial-only clones (sDl1) after day 18.

[4] = system: NSC populations; assay: NSC clonal expansion on full-length Jagged1 NIH 3T3 feeder layer; format: cell-based; details: 5 μg/ml thrombin
Source text: To further evaluate the activity of thrombin as a modifier of Jagged1, the clonal expansion studies were repeated using NSC populations cultured in the presence of a viable full-length Jagged1 NIH 3T3 cell transfectant feeder layer.

[5] = system: NIH 3T3 cells; assay: Cell migration (scratch) assay; format: cell-based, mouse; details: stable NIH 3T3 cell transfectants expressing the ligand
Experimental: Cell Migration Assay. Approximately 10^5 Sj1 or sDl1 NIH 3T3 cells were plated in 6-well plastic plates (Falcon) DMEM supplemented with 10% (w/v) bovine calf serum (BCS; Hyclone) and after the cells reached approximately 60-70% confluence, the cell monolayer was scratched using a plastic cell scraper. Photomicrographs were taken immediately after the injury and 24 hours and 48 hours later.

[6] = system: Src; assay: Src pY418 immunoblot; format: cell-based, mouse; details: stable NIH 3T3 cell transfectants expressing the ligand
Experimental: Immunoblot Analysis. Cell lysates from insert-less vector sDl1 and sJ1 NIH 3T3 cell transfectants were prepared in 20 mM Tris HCl, pH 7.5, containing 300 mM sucrose, 60 mM—KCl, 15 mM NaCl, 0.5 mM EDTA, 0.5% (v/v) Triton X-100, 1 mM phenylmethylsulfonyl fluoride, 10 μg/ml leupeptin, 2 μg/ml aprotinin, 0.1% (w/v) deoxycholic acid and 1 mM sodium orthovanadate. Samples of equal protein content were subjected to SDS-PAGE and immunoblot analysis was performed as previously described (Small et al., 2001, J. Biol. Chem. 276:32022-32030) using either a rabbit anti-Src [pY418] phosphospecific antibody (Biosource International), a rabbit anti-total Src antibody (Santa Cruz Biotechnology), a rabbit polyclonal anti-cortactin antibody (a gift from Dr. Xi Zhan, American Red Cross), or an anti-phosphotyrosine antibody (Upstate). Immunoprecipitation of cortactin was performed as previously described (Zhan et al., 1993, J. Biol. Chem. 268:24427-24431).

T2 sequence (P78504 34-1218 A1171G): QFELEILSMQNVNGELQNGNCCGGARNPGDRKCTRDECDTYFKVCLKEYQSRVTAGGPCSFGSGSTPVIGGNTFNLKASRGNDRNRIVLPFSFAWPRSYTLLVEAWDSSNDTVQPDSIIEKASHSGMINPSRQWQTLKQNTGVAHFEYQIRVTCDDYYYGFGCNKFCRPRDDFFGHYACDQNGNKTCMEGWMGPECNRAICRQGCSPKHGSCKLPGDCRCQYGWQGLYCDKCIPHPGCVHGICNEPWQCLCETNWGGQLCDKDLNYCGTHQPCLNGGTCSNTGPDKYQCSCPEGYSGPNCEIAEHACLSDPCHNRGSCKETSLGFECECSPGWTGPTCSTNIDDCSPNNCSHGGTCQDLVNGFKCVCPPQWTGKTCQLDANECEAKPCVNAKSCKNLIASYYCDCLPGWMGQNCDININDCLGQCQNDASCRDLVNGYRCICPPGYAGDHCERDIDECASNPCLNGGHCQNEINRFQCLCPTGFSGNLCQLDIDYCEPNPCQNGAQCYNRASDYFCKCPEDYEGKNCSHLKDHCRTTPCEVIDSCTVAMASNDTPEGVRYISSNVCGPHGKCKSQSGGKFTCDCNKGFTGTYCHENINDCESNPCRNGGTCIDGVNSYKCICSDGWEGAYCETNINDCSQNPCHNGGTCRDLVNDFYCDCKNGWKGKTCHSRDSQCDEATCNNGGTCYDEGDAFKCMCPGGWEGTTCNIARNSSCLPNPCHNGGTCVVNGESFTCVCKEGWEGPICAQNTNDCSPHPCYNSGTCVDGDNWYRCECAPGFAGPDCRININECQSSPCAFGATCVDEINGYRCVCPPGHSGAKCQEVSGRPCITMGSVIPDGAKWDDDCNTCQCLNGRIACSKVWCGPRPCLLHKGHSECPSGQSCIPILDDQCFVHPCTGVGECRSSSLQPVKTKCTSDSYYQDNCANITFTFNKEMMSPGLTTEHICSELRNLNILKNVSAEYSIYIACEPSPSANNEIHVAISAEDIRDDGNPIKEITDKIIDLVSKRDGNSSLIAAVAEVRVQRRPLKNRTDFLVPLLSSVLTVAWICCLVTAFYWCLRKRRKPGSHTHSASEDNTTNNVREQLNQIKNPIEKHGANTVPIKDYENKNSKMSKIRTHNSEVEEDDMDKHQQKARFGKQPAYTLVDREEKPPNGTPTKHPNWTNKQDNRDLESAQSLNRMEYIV
T1 sequence (P78504 34-1218 A1171G): as above

| Molecule | Jagged1 cleavage site [1] | cleavage of 134 kDa Jagged1 translation product [2] | shift in sensitivity of secondary stem cells to instructive differentiation signals [3] | size of NSC colonies on full-length Jagged1 feeder layer [4] | migratory behavior [5] | level of active Src [6] |
| --- | --- | --- | --- | --- | --- | --- |
| thrombin | between residues R348 and G349 | cleavage of the full-length Jagged1 protein into 39 kDa and 95 kDa fragments | this shift in sensitivity to instructive differentiation signals was not observed | exaggeration of the size of the NSC colonies |  |  |
| sJ1: Soluble Jagged1, amino acid residues about 1 to 1067 (SEQ ID NO:3) of full-length human Jagged1 |  |  | this shift in sensitivity to instructive differentiation signals was not observed |  | exhibited a decrease in their migratory potential | increase in the level of active Src |
| sDl1: soluble non-transmembrane form (extracellular domain) of the Notch ligand Delta1 (protein, left off: small tags and cut ends, soluble non-transmembrane form (extracellular domain) of the Notch ligand Delta1) QVWSSGVFELKLQEFVNKKGLLGNRNCCRGGAGPPPCACRTFFRVCLKHYQASVSPEPPCTYGSAVTPVLGVDSFSLPDGGGADSAFSNPIRFPFGFTWPGTFSLIIEALHTDSPDDLATENPERLISRLATQRHLTVGEEWSQDLHSSGRTDLKYSYRFVCDEHYYGEGCSVFCRPRDDAFGHFTCGERGEKVCNPGWKGPYCTEPICLPGCDEQHGFCDKPGECKCRVGWQGRYCDECIRYPGCLHGTCQQPWQCNCQEGWGGLFCNQDLNYCTHHKPCKNGATCTNTGQGSYTCSCRPGYTGATCELGIDECDPSPCKNGGSCTDLENSYSCTCPPGFYGKICELSAMTCADGPCFNGGRCSDSPDGGYSCRCPVGYSGFNCEKKIDYCSSSPCSNGAKCVDLGDAYLCRCQAGFSGRHCDDNVDDCASSPCANGGTCRDGVNDFSCTCPPGYTGRNCSAPVSRCEHAPCHNGATCHERGHRYVCECARGYGGPNCQFLLPELPPGPAVVDLTEKLEGQGGPFPW |  |  |  |  | displayed normal motility | increase in the level of active Src |
